In ChEMBL document CHEMBL1201862, “PubChem BioAssay data set” (2004):
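Each compound was tested at five concentrations against cells in 96-well plates for 48 hours. Abbreviation: GI50, concentration required for 50% inhibition of growth.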 Activity calls are given as the source filed them. Rule as the data show it: active = GI50 up to about 1.1 µM and inactive = higher.

Tests used:
Assay in all cases: inhibition of tumour cell growth, NCI panel, 48 h
BT-549 = tested on: BT-549
SK-MEL-5 = tested on: SK-MEL-5
SK-MEL-2 = tested on: SK-MEL-2
EKVX = tested on: EKVX
Hs-578T = tested on: Hs-578T
OVCAR-4 = tested on: OVCAR-4
NCI-H460 = tested on: NCI-H460
HCT-15 = tested on: HCT-15
HT-29 = tested on: HT-29
KM12 = tested on: KM12
ACHN = tested on: ACHN
HOP-92 = tested on: HOP-92
A498 = tested on: A498
MOLT-4 = tested on: MOLT-4
OVCAR-3 = tested on: OVCAR-3
Malme-3M = tested on: Malme-3M
UO-31 = tested on: UO-31
IGROV-1 = tested on: IGROV-1
HCC 2998 = tested on: HCC 2998

Compound | GI50 (BT-549) | GI50 (SK-MEL-5) | GI50 (SK-MEL-2) | GI50 (EKVX) | GI50 (Hs-578T) | GI50 (OVCAR-4) | GI50 (NCI-H460) | GI50 (HCT-15) | GI50 (HT-29) | GI50 (KM12) | GI50 (ACHN) | GI50 (HOP-92) | GI50 (A498) | GI50 (MOLT-4) | GI50 (OVCAR-3) | GI50 (Malme-3M) | GI50 (UO-31) | GI50 (IGROV-1) | GI50 (HCC 2998)
CCOC(=O)c1nc2cc(F)c(F)cc2nc1NCc1cc(OC)c(OC)c(OC)c1 | > 100 µM (inactive) | 76.7 µM (inactive) | > 100 µM (inactive) | > 100 µM (inactive) | 50.7 µM (inactive) | > 100 µM (inactive) | > 100 µM (inactive) | > 100 µM | > 100 µM (inactive) | > 100 µM (inactive) | > 100 µM (inactive) | 50.7 µM (inactive) | > 100 µM (inactive) | > 100 µM (inactive) | > 100 µM (inactive) | > 100 µM (inactive) | 63.7 µM (inactive) | > 100 µM (inactive) | 
Cc1cc2c(O)nc(N)nc2nc1C | > 100 µM (inactive) | > 100 µM (inactive) | > 100 µM (inactive) | > 100 µM (inactive) | > 100 µM (inactive) | > 100 µM (inactive) | > 100 µM (inactive) | > 100 µM | > 100 µM (inactive) | > 100 µM (inactive) | > 100 µM (inactive) | > 100 µM (inactive) | > 100 µM (inactive) |  | > 100 µM (inactive) | > 100 µM (inactive) | > 100 µM (inactive) | > 100 µM (inactive) | 
CC(=O)OC(Cc1cc(C=C(C(F)(F)F)C(F)(F)F)cc(C)n1)(C(F)(F)F)C(F)(F)F | 1.77 µM (inactive) | 1.49 µM (inactive) | 2.1 µM (inactive) | 2.01 µM (inactive) | 1.95 µM (inactive) | 1.72 µM (inactive) | 1.99 µM (inactive) | 0.975 µM | 0.55 µM (active) | 1.55 µM (inactive) | 1.39 µM (inactive) |  | 1.75 µM (inactive) | < 0.01 µM (active) | 1.36 µM (inactive) | 2.48 µM (inactive) | 1.64 µM (inactive) | 1.1 µM (active) | 5.2 µM (inactive)
NS(=O)(=O)c1nc(S(=O)(=O)O)c2[nH]cnc2n1 | > 100 µM (inactive) | > 100 µM (inactive) | > 100 µM (inactive) | > 100 µM (inactive) | > 100 µM (inactive) | > 100 µM (inactive) | > 100 µM (inactive) | > 100 µM | > 100 µM (inactive) | > 100 µM (inactive) | > 100 µM (inactive) | > 100 µM (inactive) | > 100 µM (inactive) | 29 µM (inactive) | > 100 µM (inactive) | > 100 µM (inactive) | > 100 µM (inactive) | > 100 µM (inactive) | 
CC(Nc1ccc(Cl)cc1)c1ccncc1 (stereo unspecified) | > 100 µM (inactive) | 36.6 µM (inactive) | > 100 µM (inactive) | 75.5 µM (inactive) | > 100 µM (inactive) | > 100 µM (inactive) | 36.8 µM (inactive) | > 100 µM | 89.5 µM (inactive) | 22.3 µM (inactive) | > 100 µM (inactive) |  | 81.7 µM (inactive) | 64.3 µM (inactive) | > 100 µM (inactive) | > 100 µM (inactive) | 63.1 µM (inactive) | 62.5 µM (inactive) | > 100 µM (inactive)
CN(CCN1CCCC1)C1CCc2cc(Cl)c(Cl)cc2C1 (stereo unspecified) | 14.9 µM (inactive) | 11.1 µM (inactive) | 17.9 µM (inactive) | 20.6 µM (inactive) | 29.9 µM (inactive) | 21.4 µM (inactive) | 16.6 µM (inactive) | 13.2 µM | 10.4 µM (inactive) | 20.3 µM (inactive) | 16.9 µM (inactive) |  | 13.2 µM (inactive) | 24.8 µM (inactive) | 17.1 µM (inactive) | 18.9 µM (inactive) | 13.2 µM (inactive) | 15.6 µM (inactive) | 5.47 µM (inactive)
C=CCCC1(CC(Sc2ccccc2)P(=O)(c2ccccc2)c2ccccc2)OCCO1 (stereo unspecified) | > 10 µM (inactive) | > 10 µM (inactive) | > 10 µM (inactive) | > 10 µM (inactive) | > 10 µM (inactive) | > 10 µM (inactive) | > 10 µM (inactive) | > 10 µM | > 10 µM (inactive) | > 10 µM (inactive) | > 10 µM (inactive) |  | > 10 µM (inactive) | > 10 µM (inactive) | > 10 µM (inactive) | > 10 µM (inactive) | > 10 µM (inactive) | > 10 µM (inactive) | > 10 µM (inactive)
Cn1c(=O)c2c(nc3sc4ccccc4c(=O)n32)n(C)c1=O | > 100 µM (inactive) | > 100 µM (inactive) | > 100 µM (inactive) | > 100 µM (inactive) | > 100 µM (inactive) | > 100 µM (inactive) | > 100 µM (inactive) | > 100 µM | > 100 µM (inactive) | > 100 µM (inactive) | > 100 µM (inactive) | > 100 µM (inactive) | > 100 µM (inactive) | > 100 µM (inactive) | > 100 µM (inactive) |  | > 100 µM (inactive) | > 100 µM (inactive) | > 100 µM (inactive)
CCOC(=O)CCC(NC(=O)OCc1ccccc1)C(=O)NC(CCC(=O)OCC)C(=O)NC(CCC(=O)OCC)C(=O)NNC(=O)OC(C)(C)C (stereo unspecified) | > 100 µM (inactive) | > 100 µM (inactive) | > 100 µM (inactive) | > 100 µM (inactive) | > 100 µM (inactive) |  | > 100 µM (inactive) | > 100 µM | > 100 µM (inactive) | > 10 µM (inactive) | > 100 µM (inactive) | > 100 µM (inactive) | > 100 µM (inactive) | > 100 µM (inactive) |  | > 100 µM (inactive) | > 100 µM (inactive) | > 100 µM (inactive) | > 100 µM (inactive)
N#Cc1c(N)[nH]c2ccc(Sc3ccccc3)cc12 | 1.16 µM (inactive) | 0.145 µM (active) | 0.338 µM (active) | 0.659 µM (active) | 0.449 µM (active) | 0.675 µM (active) | 0.201 µM (active) | 0.098 µM | 0.21 µM (active) | 0.113 µM (active) | 0.284 µM (active) | 1.78 µM (inactive) | 0.196 µM (active) | 0.143 µM (active) | 0.215 µM (active) |  | 0.236 µM (active) | 0.198 µM (active) | 0.516 µM (active)
COC(=O)c1c(O)ccc2c1c1c(n2Cc2ccccc2)C(=O)c2ccccc2C1=O | 16.6 µM (inactive) | 16.1 µM (inactive) | 14 µM (inactive) | 20.6 µM (inactive) | 18.5 µM (inactive) | 12 µM (inactive) | 10.7 µM (inactive) | 12.6 µM | 9.23 µM (inactive) | 12.9 µM (inactive) | 12.2 µM (inactive) | 13 µM (inactive) |  | 4.88 µM (inactive) | 16.7 µM (inactive) | 28.8 µM (inactive) | 10.3 µM (inactive) | 12.6 µM (inactive) | 5.01 µM (inactive)
Cc1cc(OCC(=O)N/N=C/C(Br)=C/c2ccccc2)nc(SCC(=O)N/N=C/C(Br)=C/c2ccccc2)n1 | > 100 µM (inactive) | > 100 µM (inactive) |  | 80 µM (inactive) | 39.9 µM (inactive) | 42 µM (inactive) | 28.2 µM (inactive) | > 100 µM | > 100 µM (inactive) | 39.9 µM (inactive) | > 100 µM (inactive) | 24.9 µM (inactive) | > 100 µM (inactive) |  | > 100 µM (inactive) |  | > 100 µM (inactive) | 52.2 µM (inactive) | 23 µM (inactive)
O=C1NC(N2CCOCC2)=N/C1=C\c1cccs1 | > 100 µM (inactive) | > 100 µM (inactive) | > 100 µM (inactive) | > 100 µM (inactive) | > 100 µM (inactive) | > 100 µM (inactive) |  | > 100 µM | > 100 µM (inactive) | 36.2 µM (inactive) | > 100 µM (inactive) | > 100 µM (inactive) |  | > 100 µM (inactive) | > 100 µM (inactive) | > 100 µM (inactive) | > 100 µM (inactive) | > 100 µM (inactive) | 4.65 µM (inactive)
CC(/C=N/N=C1NCCCCN1)=N\N=C1NCCCCN1 | > 100 µM (inactive) | 49.2 µM (inactive) |  | > 100 µM (inactive) | > 100 µM (inactive) | > 100 µM (inactive) | > 100 µM (inactive) | > 100 µM | 84.1 µM (inactive) | > 100 µM (inactive) | > 100 µM (inactive) | 37.9 µM (inactive) |  | 87.3 µM (inactive) | > 100 µM (inactive) | 35.8 µM (inactive) | > 100 µM (inactive) | > 100 µM (inactive) | > 100 µM (inactive)
CCCCCCCCCCCCCCCCCCOC(COP(=O)(O)OCC1OC(n2cc(F)c(=O)[nH]c2=O)CC1O)COP(=O)(O)OCC1OC(n2ccc(N)nc2=O)C(O)C1O (stereo unspecified) | 18.5 µM (inactive) | > 73.5 µM (inactive) | > 67 µM (inactive) | > 100 µM (inactive) | > 100 µM (inactive) | 47.1 µM (inactive) | 0.159 µM (active) | 31.4 µM | 18.2 µM (inactive) | 59.2 µM (inactive) | 0.474 µM (active) |  | 0.485 µM (active) | 1.72 µM (inactive) | > 100 µM (inactive) | > 68.9 µM (inactive) | 9.64 µM (inactive) | 13.6 µM (inactive) | 0.419 µM (active)
COc1ccc2c(c1)CCN1CCCc3ccc(OC)cc3C21 (stereo unspecified) | 34 µM (inactive) | 39.6 µM (inactive) | 52.1 µM (inactive) | > 100 µM (inactive) | 48.1 µM (inactive) | > 100 µM (inactive) |  | 54.8 µM | 31.7 µM (inactive) | 60.4 µM (inactive) | > 100 µM (inactive) | 63.8 µM (inactive) | 84.5 µM (inactive) | 37.1 µM (inactive) | 92 µM (inactive) |  | 22.5 µM (inactive) | 57.4 µM (inactive) | 37.9 µM (inactive)
